Drawing on ChEMBL document CHEMBL1131548, “Synthesis and biological evaluation of two analogues of (S)-alpha-methyl-3-carboxyphenylalanine” (Bioorg Med Chem Lett, 1998), this text covers inhibition and IC50 for three compounds.

By inhibition is commonly meant the drop in the measured response relative to a control, in per cent. A word on the pIC50: it is the IC50 on a negative log10 scale, so that one unit is a factor of ten.

In experiment [1] the target is Metabotropic glutamate receptor 6 (Homo sapiens) (UniProt O15303). The experiment is described as follows: Compound was evaluated for its agonist activity against mGluR6 in Chinese hamster ovary (CHO) cells; Inactive. It counts as functional, cell-based.
The next experiment is filed under the species Rattus norvegicus. The experiment is described as follows: Compound was evaluated for its antagonist activity and inhibition of forskolin-stimulated cAMP formation by L-AP4 (10 uM), in adult rat cortical slices. It counts as functional. (cAMP levels reflect the balance of adenylyl cyclase and phosphodiesterase activity.)
For experiment [2], the target named is Metabotropic glutamate receptor 6 (Homo sapiens) (UniProt O15303). The experiment is described as follows: Compound was evaluated for its agonist activity against mGluR6 in Chinese hamster ovary (CHO) cells at a concentration of 300 uM. The format is functional, cell-based.

pIC50: −log10 of the molar value. Activity calls are given as the source filed them. No cut-off for these calls is given here.

Metabotropic glutamate receptor 6 (Homo sapiens), sequence (O15303 whole entry): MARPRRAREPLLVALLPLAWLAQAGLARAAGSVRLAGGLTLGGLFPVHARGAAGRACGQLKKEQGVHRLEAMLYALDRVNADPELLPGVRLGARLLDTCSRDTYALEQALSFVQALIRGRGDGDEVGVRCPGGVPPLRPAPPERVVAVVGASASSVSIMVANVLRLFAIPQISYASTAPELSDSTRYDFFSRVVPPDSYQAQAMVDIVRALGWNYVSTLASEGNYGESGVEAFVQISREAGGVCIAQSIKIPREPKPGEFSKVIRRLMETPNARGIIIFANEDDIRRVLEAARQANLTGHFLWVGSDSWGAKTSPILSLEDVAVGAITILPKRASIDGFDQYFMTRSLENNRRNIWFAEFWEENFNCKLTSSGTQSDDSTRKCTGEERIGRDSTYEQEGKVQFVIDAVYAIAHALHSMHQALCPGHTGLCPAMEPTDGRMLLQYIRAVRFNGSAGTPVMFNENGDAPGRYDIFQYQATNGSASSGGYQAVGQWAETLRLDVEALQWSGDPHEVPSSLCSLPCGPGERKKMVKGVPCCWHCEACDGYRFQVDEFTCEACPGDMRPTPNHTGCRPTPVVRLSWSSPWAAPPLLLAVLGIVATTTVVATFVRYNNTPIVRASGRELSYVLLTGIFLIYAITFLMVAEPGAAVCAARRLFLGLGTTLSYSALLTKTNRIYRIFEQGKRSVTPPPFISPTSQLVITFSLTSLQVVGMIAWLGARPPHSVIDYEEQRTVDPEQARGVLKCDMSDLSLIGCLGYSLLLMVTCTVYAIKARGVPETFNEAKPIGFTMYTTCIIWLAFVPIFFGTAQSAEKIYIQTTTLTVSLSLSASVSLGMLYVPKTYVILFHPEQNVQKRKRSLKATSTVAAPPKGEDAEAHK

Consider `C[C@@]1(C(=O)O)Cc2cc(C(=O)O)ccc2CN1`, for which the inhibition result in experiment [1] was “inactive”.

As for `C[C@](N)(Cc1cccc(C(=O)O)c1)C(=O)O`, the pIC50 in the experiment listed under Rattus norvegicus was 6.00.

`C[C@](N)(Cc1cccc(P(=O)(O)O)c1)C(=O)O`: in experiment [2], the inhibition turned out to be 27%.
